# Target: T1, Mitochondrial peptide methionine sulfoxide reductase (Bos taurus, UniProt P54149)
# T1 sequence (P54149 whole entry): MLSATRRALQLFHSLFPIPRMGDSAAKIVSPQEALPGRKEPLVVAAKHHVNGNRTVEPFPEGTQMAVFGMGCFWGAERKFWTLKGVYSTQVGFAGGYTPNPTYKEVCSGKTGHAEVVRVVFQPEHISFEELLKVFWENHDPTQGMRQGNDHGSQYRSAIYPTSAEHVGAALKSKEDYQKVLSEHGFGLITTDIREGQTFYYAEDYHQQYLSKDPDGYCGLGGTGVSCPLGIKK
row,SMILES,IC50
1,COc1ccc(/C=N/N2C(=O)C3C4C=CC(C4)C3C2=O)cc1[N+](=O)[O-] (stereo not given) [SMR000283338],> 155 µM
2,"CCOc1cc(S(=O)(=O)N(CC)CC)c(OCC)cc1-n1cnnn1 [2,5-diethoxy-N,N-diethyl-4-(1,2,3,4-tetrazol-1-yl)benzenesulfonamide]",> 155 µM
3,"CC(=O)c1cccc(Oc2cc(NN3CCCCC3)c([N+](=O)[O-])cc2[N+](=O)[O-])c1 [1-[3-[2,4-dinitro-5-(1-piperidinylamino)phenoxy]phenyl]ethanone]",> 155 µM
4,CC(Nc1cc(N2CCOCC2)ccc1[N+](=O)[O-])c1ccccc1 (stereo not given) [MLS000573605],> 155 µM
5,Cc1ccc(C)n1-n1c(C)nc2scc(-c3ccccc3)c2c1=O [MLS000564386],> 155 µM
6,Cc1c(O)ccc2c(-c3ccccc3)cc(=O)oc12 [7-hydroxy-8-methyl-4-phenyl-1-benzopyran-2-one],> 155 µM
7,COc1cccc2c1Oc1cc([N+](=O)[O-])cc(N(C)C(C)=O)c1C=C2 [SMR000559347],> 155 µM
8,"O=Cc1cn(-c2ccccc2)nc1-c1ccc2c(c1)OCCO2 [3-(2,3-Dihydro-benzo[1,4]dioxin-6-yl)-1-phenyl-1H-pyrazole-4-carbaldehyde]",> 155 µM
9,CCc1noc(C)c1C(=O)Nc1nc(-c2cc(C)ccc2C)c(C)s1 [MLS000324834],> 155 µM
10,COC(=O)COc1ccc2oc(=O)cc(-c3cc4ccccc4o3)c2c1 [MLS001167555],> 155 µM
11,CC(N=O)c1cc(C(C)(C)C)c(O)c(C(C)(C)C)c1 (stereo not given),> 155 µM
12,CCOc1ccc(N(C)S(=O)(=O)c2cc(-c3cc(C)no3)ccc2C)cc1 [SMR000630369],> 155 µM
13,O=C1C(=O)N(CCCn2ccnc2)C(c2cccc(Br)c2)C1C(=O)c1ccco1 (stereo not given) [2-(3-bromophenyl)-3-[2-furanyl(oxo)methyl]-4-hydroxy-1-[3-(1-imidazolyl)propyl]-2H-pyrrol-5-one],> 155 µM
14,"[O-][N+]1=c2ccc(Nc3ccccc3)cc2=NC12CCCCC2 [1-oxido-N-phenyl-5-spiro[benzimidazol-1-ium-2,1'-cyclohexane]amine]",> 155 µM
15,O=C1N=C(N2C=CC(c3ccncc3)C=C2)C(=CN=NC(=O)c2ccccc2)S1,> 155 µM
16,"O=Cc1c(-c2ccccc2)nc2ccccn12 [2-phenyl-3-imidazo[1,2-a]pyridinecarboxaldehyde]",> 155 µM
17,O=c1cnn(-c2ccccc2)c(-c2ccccc2)c1 [SMR000060054],> 155 µM
18,COc1cccc(Nc2nc3cc(OC)ccc3cc2C#N)c1 [7-methoxy-2-(3-methoxyanilino)-3-quinolinecarbonitrile],> 155 µM
19,CC(=O)COc1ccc2c(-c3ccccc3)cc(=O)oc2c1C [8-methyl-7-(2-oxidanylidenepropoxy)-4-phenyl-chromen-2-one],> 155 µM
20,"Cc1ccnc(N2C(=O)c3cccc4c([N+](=O)[O-])ccc(c34)C2=O)c1 [2-(4-Methyl-pyridin-2-yl)-6-nitro-benzo[de]isoquinoline-1,3-dione]",> 155 µM
21,"N#CCCSc1nc(N2CCOCC2)c2c(c1C#N)CCCC2 [3-(2-cyanoethylthio)-1-(4-morpholinyl)-5,6,7,8-tetrahydroisoquinoline-4-carbonitrile]",> 155 µM
22,"CCOC(=O)C1CCCN(C(=O)c2cnn3c(C(F)F)cc(-c4ccc(C)cc4)nc23)C1 (stereo not given) [1-[7-(difluoromethyl)-5-(p-tolyl)pyrazolo[1,5-a]pyrimidine-3-carbonyl]nipecotic acid ethyl ester]",> 155 µM
23,CC1(C)C2CCC(CN=C(N)CSS(=O)(=O)O)C1C2 (stereo not given) [SMR001821892],> 155 µM

row,SMILES,IC50
1,"COC(=O)N1[C@H](C)C=C[C@]1(Cc1ccccc1)C(=O)NCCCNc1ncc(C(F)(F)F)cc1Cl [(2R,5R)-5-[[3-[[3-chloro-5-(trifluoromethyl)-2-pyridinyl]amino]propylamino]-oxomethyl]-2-methyl-5-(phenylmethyl)-2H-pyrrole-1-carboxylic acid methyl ester]",> 155 µM
2,CC(=N)C(C#N)C(=O)CSc1nn(-c2ccc(Cl)cc2)c(=S)s1 (stereo not given),> 155 µM
3,"COc1cccc(Nc2nc3ccccc3n3nnnc23)c1 [N-(3-methoxyphenyl)-[1,2,3,4]tetrazolo[1,5-a]quinoxalin-4-amine]",> 155 µM
4,"Cc1ccc(C)n1-n1c(C)nc2scc(-c3cccs3)c2c1=O [3-(2,5-dimethyl-1-pyrrolyl)-2-methyl-5-thiophen-2-yl-4-thieno[2,3-d]pyrimidinone]",> 155 µM
5,FC(F)(F)c1ccc(/N=C/c2sc(N3CCOCC3)nc2-c2ccccc2)cc1 [SMR000260329],> 155 µM
6,"c1cnn(-c2cncc(-n3cccn3)n2)c1 [2,6-bis(1-pyrazolyl)pyrazine]",> 155 µM
7,c1ccc2c(c1)nc(-c1ccncc1)n1nnnc21 [SMR000060326],> 155 µM
8,O=C(c1ccco1)c1cc2c(ccc3ccccc32)oc1=O [2-(furan-2-ylcarbonyl)benzo[f]chromen-3-one],> 155 µM
9,C#Cc1cccc(Nc2nc(NCc3ccccc3OC)nc3ccsc23)c1 [MLS003123009],> 155 µM
10,CC(C)(C)c1cc([N+](=O)[O-])cc(C(C)(C)C)c1O [MLS000755910],> 155 µM
11,"Cc1ccccc1-n1c(SCc2cccc(F)c2)nc2[nH]ncc2c1=O [6-[(3-fluorobenzyl)thio]-5-(2-methylphenyl)-2,5-dihydro-4H-pyrazolo[3,4-d]pyrimidin-4-one]",> 155 µM
12,COC(=O)c1ccccc1NC(=S)NC(=O)C1CC1 [methyl 2-({[(cyclopropylcarbonyl)amino]carbothioyl}amino)benzoate],> 155 µM
13,"CN(C)CCCN1C(=O)c2cccc3c([N+](=O)[O-])ccc(c23)C1=O [2-[3-(dimethylamino)propyl]-6-nitro-1H-benzo[de]isoquinoline-1,3(2H)-dione]",> 155 µM
14,Cc1cc(OC(C)C)c2c(-c3ccccc3)cc(=O)oc2c1 [SMR000141385],> 155 µM
15,COc1cccc(C2=Nc3nnnn3C(c3cccc(OC)c3OC)C2)c1 (stereo not given),> 155 µM
16,COc1ccc2[nH]c(C(=O)N/N=C/c3ccc(OC)c(O)c3)cc2c1 [MLS001214387],> 155 µM
17,"NC(=O)c1ccc(Nc2ccc3c(c2)CCC3)c([N+](=O)[O-])c1 [4-(2,3-dihydro-1H-inden-5-ylamino)-3-nitro-benzamide]",> 155 µM
18,CSc1nc2sc3c(c2c2nnnn12)CCCC3 [MLS000071273],> 155 µM
19,"C#Cc1cccc(Nc2nc(NCCOC)nc3ccsc23)c1 [4-N-(3-ethynylphenyl)-2-N-(2-methoxyethyl)thieno[3,2-d]pyrimidine-2,4-diamine]",> 155 µM
20,O=C(N/N=C/c1sc(N2CCOCC2)nc1-c1ccccc1)c1ccc(O)cc1 [MLS000336683],> 155 µM
21,"CN(c1ccccc1)S(=O)(=O)c1ccc2[nH]c(O)nc2c1 [N-methyl-2-oxidanylidene-N-phenyl-1,3-dihydrobenzimidazole-5-sulfonamide]",> 155 µM
22,Cc1ccc(-c2csc3nc(C)n(-n4c(C)ccc4C)c(=O)c23)o1 [SMR000061692],> 155 µM

# Other lines, results leading:
row,IC50,SMILES
1,> 155 µM,"COc1cc(C2C(C(=O)c3sc(C)nc3C)C(=O)C(=O)N2CCN(C)C)cc(OC)c1OC (stereo not given) [1-[2-(dimethylamino)ethyl]-3-[(2,4-dimethyl-5-thiazolyl)-oxomethyl]-4-hydroxy-2-(3,4,5-trimethoxyphenyl)-2H-pyrrol-5-one]"
2,> 155 µM,Cc1ccccc1Nc1c(N)c(=O)oc2ccccc12 [MLS000563389]
3,> 155 µM,O=C(COC(=O)C1=NN(c2ccccc2)C(=O)CC1)Nc1ccc([N+](=O)[O-])cc1C(F)(F)F [SMR001244149]
4,> 155 µM,N#Cc1c(NCCCO)nc(-c2ccco2)c2c1CCCC2
5,> 155 µM,N#CC(C=Nc1ccccc1O)c1nc2ccccc2o1 (stereo not given) [SMR000171441]
6,149 µM,COc1ccc(C=NNC(=O)C(C=Nc2nccc(C)n2)NC(=O)c2ccccc2)cc1 (stereo not given) [N-[(E)-3-[(2Z)-2-[(4-methoxyphenyl)methylidene]hydrazinyl]-1-[(4-methylpyrimidin-2-yl)amino]-3-oxidanylidene-prop-1-en-2-yl]benzamide]
7,> 155 µM,N#CC1C(=N)Oc2c(O)cc3ccccc3c2C1c1ccsc1 (stereo not given) [3-amino-5-hydroxy-1-(3-thiophenyl)-1H-benzo[f][1]benzopyran-2-carbonitrile]
8,118 µM,O=C(O)Cc1sc(N=NC=CCc2ccccc2)nc1O [SMR000236709]
9,> 155 µM,"O=[N+]([O-])c1cc([N+](=O)[O-])c(N2CCOCC2)cc1NCc1ccccc1 [5-morpholin-4-yl-2,4-dinitro-N-(phenylmethyl)aniline]"
10,> 155 µM,CC(=O)N1N=C(c2ccncc2)OC1(Cc1ccccc1)Cc1ccccc1
11,> 155 µM,"Nc1ccccc1Nc1ccc([N+](=O)[O-])cc1[N+](=O)[O-] [N~1~-(2,4-dinitrophenyl)-1,2-benzenediamine]"
12,> 155 µM,Cn1c2c(c(=O)n(C)c1=O)C(C(F)(F)F)(C(F)(F)F)NC(C1CCCCC1)=N2 [SMR000219726]
13,> 155 µM,"Cc1nn2c(=O)cc(CSc3ccccc3NC(=O)c3ccccc3)nc2s1 [N-[2-[(2-methyl-5-oxo-[1,3,4]thiadiazolo[3,2-a]pyrimidin-7-yl)methylsulfanyl]phenyl]benzamide]"
14,> 155 µM,Cc1ccc(Nc2ccc(C(N)=O)cc2[N+](=O)[O-])cc1C [MLS000334544]
15,> 155 µM,Cc1ccc(C)c(NC(=O)/C(C#N)=C/c2ccc[nH]2)c1 [SMR000678612]
16,> 155 µM,COc1ccc(-c2cc(=O)oc3c(C)c(OC(C)C(C)=O)ccc23)cc1 (stereo not given) [4-(4-methoxyphenyl)-8-methyl-7-(3-oxobutan-2-yloxy)-1-benzopyran-2-one]
17,> 155 µM,"O=C(c1ccccc1)c1coc2c1C(=O)c1ccccc1C2=O [3-benzoylbenzo[f]benzofuran-4,9-dione]"
18,> 155 µM,O=Cc1cn(-c2ccccc2)nc1-c1ccc(F)cc1 [3-(4-fluorophenyl)-1-phenyl-1H-pyrazole-4-carbaldehyde]
19,> 155 µM,CCOC(=O)N/N=C1/c2ccccc2-c2nc3nonc3nc21 [SMR000305141]
20,> 155 µM,Cc1nn(Cc2ccc(Cl)cc2)c(=O)n1N(C)c1ncc(C(F)(F)F)cc1Cl [MLS000541367]
